# Experimental data taken from ChEMBL document CHEMBL1155740, “Dicerandrols, new antibiotic and cytotoxic dimers produced by the fungus Phomopsis longicolla isolated from an endangered mint” (2001).
# The source made the active and inactive calls. The rule behind the calls is not given here.
# Assays:
# Bacillus subtilis [1] = test: Antibacterial activity against Bacillus subtilis at 100 ug/disk after overnight incubation by agar diffusion method; assay type: functional; details: read-out: IZ
# Staphylococcus aureus [2] = test: Antibacterial activity against Staphylococcus aureus at 100 ug/disk after overnight incubation by agar diffusion method; assay type: functional; details: read-out: IZ
# Geotrichum candidum = test: Antifungal activity against Geotrichum candidum at 300 ug/disk; assay type: functional, organism-based
# Saccharomyces cerevisiae = test: Antifungal activity against Saccharomyces cerevisiae at 300 ug/disk; assay type: functional, organism-based
# A549 = test: Cytotoxicity against human A549 cells after 72 hrs; assay type: functional
# HCT-116 = test: Cytotoxicity against human HCT116 cells after 72 hrs; assay type: functional
# Staphylococcus aureus [3] = test: Antibacterial activity against Staphylococcus aureus at 30 ug after overnight incubation by agar diffusion method; assay type: functional; details: read-out: IZ
# Bacillus subtilis [4] = test: Antibacterial activity against Bacillus subtilis at 30 ug after overnight incubation by agar diffusion method; assay type: functional, organism-based
molecule,measurement,setting,value
CC(=O)OC[C@]12Oc3ccc(-c4ccc5c(c4O)C(=O)C4=C(O)C[C@@H](C)[C@@H](OC(C)=O)[C@@]4(COC(C)=O)O5)c(O)c3C(=O)C1=C(O)C[C@@H](C)[C@H]2OC(C)=O [DICERANDROL C],zone of inhibition at 100 µg/disc,Bacillus subtilis [1],8 mm
same,zone of inhibition at 100 µg/disc,Staphylococcus aureus [2],7 mm
same,Activity,Geotrichum candidum,inactive
same,Activity,Saccharomyces cerevisiae,inactive
same,IC100,A549,1.8 µg/mL
same,IC100,HCT-116,7 µg/mL
CC(=O)O[C@@H]1[C@H](C)CC(O)=C2C(=O)c3c(ccc(-c4ccc5c(c4O)C(=O)C4=C(O)C[C@@H](C)[C@@H](OC(C)=O)[C@@]4(CO)O5)c3O)O[C@@]21CO [DICERANDROL A],zone of inhibition at 100 µg/disc,Bacillus subtilis [1],11 mm
same,zone of inhibition at 100 µg/disc,Staphylococcus aureus [2],10.8 mm
same,Activity,Geotrichum candidum,inactive
same,Activity,Saccharomyces cerevisiae,inactive
same,IC100,A549,7 µg/mL
same,IC100,HCT-116,7 µg/mL
NC[C@@H]1O[C@H](O[C@H]2[C@@H](O)[C@H](O[C@@H]3[C@@H](O)[C@H](N)C[C@H](N)[C@H]3O[C@H]3O[C@H](CN)[C@@H](O)[C@H](O)[C@H]3N)O[C@@H]2CO)[C@H](N)[C@@H](O)[C@@H]1O [FRAMYCETIN],zone of inhibition at 30 µg/disc,Staphylococcus aureus [3],9 mm
COc1cc([C@@H]2c3cc4c(cc3[C@@H](O[C@@H]3O[C@@H]5CO[C@@H](C)O[C@H]5[C@H](O)[C@H]3O)[C@H]3COC(=O)[C@H]23)OCO4)cc(OC)c1O [ETOPOSIDE],IC100,A549,30 µg/mL
same,IC100,HCT-116,125 µg/mL
CC(=O)OC[C@]12Oc3ccc(-c4ccc5c(c4O)C(=O)C4=C(O)C[C@@H](C)[C@@H](OC(C)=O)[C@@]4(CO)O5)c(O)c3C(=O)C1=C(O)C[C@@H](C)[C@H]2OC(C)=O [DICERANDROL B],zone of inhibition at 100 µg/disc,Bacillus subtilis [1],9.5 mm
same,zone of inhibition at 100 µg/disc,Staphylococcus aureus [2],8.5 mm
same,Activity,Geotrichum candidum,inactive
same,Activity,Saccharomyces cerevisiae,inactive
same,IC100,A549,1.8 µg/mL
same,IC100,HCT-116,1.8 µg/mL
NYSTATIN,inhibition zone (IZ),Bacillus subtilis [4],12 mm
